Measured values: patent publication US12527833B2, “Pharmaceutical composition made from hydrophobic phytochemicals dispersed in sesame oil to enhance bioactivity” (ARJUNA NATURAL PVT. LTD., priority 2017, dated 2026)

Legend:
[1] = tested on: Carrageenan induced paw edema; experiment: Carrageenan paw edema in rats: blends of Boswellia extract with edible oils (Example 7); assay type: in vivo
Experimental: The animals were housed in polypropylene cages and maintained under standard animal house conditions (12:12 hour light/dark cycle at 24±2° C. and 45-65% relative humidity). The rats had free access to standard pellet diet and water. 24 rats were divided into 8 groups comprising of 3 rats in each group. The rats were deprived of food, but had free access to drinking water for 12 h prior to the experiment. The treatment was as follows: After 12 hour fasting, baseline paw volume was recorded for each rat using digital plethysmometer (Ugo Basile, […]). Carrageenan (0.1 ml of 1%) in saline (0.9% NaCl) was injected into the plantar surface of the right hind paw of the animals. The experimental groups were given the designated extract/standard orally, 30 minutes prior to the injection of the carrageenan. After injection of carrageenan, paw volume was recorded at 3 hr. to 6 hr. post carrageenan. The edema was expressed as an increase in the volume of paw from baseline value, and the percentage of inhibition for each rat was calculated. Each composition of boswellia was obtained through standard mixing of boswellia extract with vegetable oil. • Group 1: 10 mg/Kg Diclofenac. • Group 2: 82 mg/Kg Hydrophobic blend of Boswellia extract (10% AKBA) with sesame oil (2:3). • Group 3: 82 mg/Kg Hydrophobic Boswellia extract (10% AKBA) with coconut oil (2:3). • Group 4: 82 mg/Kg Hydrophobic Boswellia extract (10% AKBA) with olive oil (2:3). • Group 5: 82 mg/Kg Hydrophobic Boswellia extract (10% AKBA) with rice bran (2:3). • Group 6: 82 mg/Kg Hydrophobic Boswellia extract (10% AKBA) with Cotton seed oil (2:3). • Group 7: 82 mg/Kg Hydrophobic Boswellia extract (10% AKBA) with Boswellia fat (2:3). • Group 8: 50 mg/Kg Homogenized dispersion hydrophobic Boswellia extract with 10% AKBA with sesame oil with 10% sesame lignans. (BS-4).

[2] = tested on: Carrageenan induced paw oedema; experiment: Carrageenan paw oedema in rats: Boswellia extract, sesame oil and their combinations (Example 8); assay type: in vivo
Experimental: The animals were housed in polypropylene cages and maintained under standard animal house conditions (12:12 hour light/dark cycle at 24±2° C. and 45-65% relative humidity). The rats had free access to standard pellet diet and water. […] were divided into 9 groups comprising of 3 rats in each group. The rats were deprived of food, but had free access to drinking water for 12 h prior to the experiment. The treatment was as follows: • Group 1: Untreated control. • Group 2: 10 mg/Kg Diclofenac. • Group 3: 20 mg/Kg Hydrophobic Boswellia extract with 2% AKBA (made as per example 2). • Group 4: 20 mg/Kg Hydrophobic Boswellia extract with 10% AKBA (made as per example 1). • Group 5: 30 mg/Kg Sesame seed oil about 0.9% sesame lignans. • Group 6: 50 mg/Kg Simple blend of Boswellia extract with 2% AKBA with Sesame seed oil with 10% sesame lignans (made as per example 6; using AKBA2). • Group 7: 50 mg/Kg Homogenized dispersion of hydrophobic Boswellia extract with 2% AKBA with sesame oil with 10% sesame lignans. (Made as per example 4). • Group 8: 50 mg/Kg Simple hydrophobic Boswellia extract with 10% AKBA with sesame oil with 10% sesame lignans. (Made as per example 6, F1). • Group 9: 50 mg/Kg Homogenized dispersion hydrophobic Boswellia extract with 10% AKBA with sesame oil with 10% sesame lignans. (Made as per example 4). After 12 hour fasting, baseline paw volume was recorded for each rat using digital plethysmometer (Ugo Basile, […]). Carrageenan (0.1 ml of 1%) in saline (0.9% NaCl) was injected into the plantar surface of the right hind paw of the animals. The experimental groups were given the designated extract/standard orally, 30 minutes prior to the injection of the carrageenan. […] The oedema was expressed as an increase in the volume of paw from baseline value, and the percentage of inhibition for each rat was calculated.

[3] = tested on: Carrageenan Induced Paw Edema; experiment: Anti-inflammatory activity in carrageenan induced paw edema in rats (Example 11); assay type: in vivo, SD rats; conditions: 6 h after carrageenan; oral; dose per group 10-100 mg/Kg; 6 rats per group
Experimental: SD rats (M/F) weighing 180-220 gm. were selected for the study. The animals were acclimatized for a period of five days and they were fed with standard pellet diet and water ad libitum. After five days of acclimatization, the rats were deprived of food, but had free access to drinking water for 12 hours prior to the experiment. Right hind paw of each rat was marked at the tibio-tarsal junction and baseline paw volume was determined using a digital plethysmometer (UGO BASILE, ITALY). Rats were divided into different groups keeping 6 rats in each group. Test sample/standard NSAID/vehicle was fed orally at designated dose. After 30 minutes of test sample/standard/vehicle, 0.1 ml carrageenan (1% suspension in 0.9% NaCl) was injected to the animals in subplantar region of the right hind paw. The paw volume was again determined for all the animals at 6 h after carrageenan injection and percentage inhibition was calculated by using following formula: […]

For `O=C(O)Cc1ccccc1Nc1c(Cl)cccc1Cl` [Diclofenac], the Avrage percentage inhibition ([1]; average of 3HR and 6HR, doses as in table) was 68.3%, the “Percentage inhibition (%) 3HR” value ([1]; paw edema 3 hr post carrageenan, oral 30 min before, Diclofenac 10, oil blends 82, BS-4 50 mg/kg) was 66.67% and the “Percentage inhibition (%) 6HR” value ([1]; paw edema 6 hr post carrageenan, oral 30 min before, Diclofenac 10, oil blends 82, BS-4 50 mg/kg) was 69.94%. The “percentage inhibition 1 h” value ([2]; 1 h post carrageenan, oral, dose per group 10-50 mg/Kg) was 64%, the “percentage inhibition 3 h” value ([2]; 3 h post carrageenan, oral, dose per group 10-50 mg/Kg) was 84% and the “percentage inhibition 5 h” value ([2]; 5 h post carrageenan, oral, dose per group 10-50 mg/Kg) was 93%. For the same compound, the “percentage inhibition 6 h” value ([2]; 6 h post carrageenan, oral, dose per group 10-50 mg/Kg) was 97%, the Average percentage inhibition ([2]; average of 1, 3, 5, 6 h) was 85% and the “Percentage inhibition in 6 Hours” value [3] was 86%.
